Molecules are shown by their SMILES. Calls of active or inactive are those of the source.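 How the source made its calls: active means AC50, the dose giving half-maximal effect, exceeds a fixed cutoff for a compound that rescues yeast growth under heat; inactive means the rest, inconclusive results apart.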 A value given as a limit tells only on which side of the number the result lay.

Among the data in PubChem BioAssay AID463199 (Broad Institute, 2010) are AC50 values, retold here.

This experiment has as its system S. cerevisiae Burl-1 ts mutant growth, BacTiter-Glo, 38.5C 24 h. Kind of experiment: growth induction of Burl-1 ts yeast mutant, dose response, counter-screen for SUMOylation pathway inhibitor project, whole organism, S. cerevisiae, luminescence (AID 463199). A general note: Counterscreens check selectivity or assay interference.

As a reminder, the AC50 is the midpoint of the concentration-response curve, whichever way the signal moves. Consider `CCc1ccc(N2C(=O)CC(N3CCC(C(=O)OC)CC3)C2=O)cc1` (stereo unspecified), for which the AC50 is > 42 µM (inactive).

Turning to `COc1cc(C(C2=C(O)CC(C)(C)CC2=O)C2C(=O)CC(C)(C)CC2=O)cc(OC)c1OC` (stereo unspecified), the AC50 was > 42 µM (inactive).

On to `Cc1nc(-c2cccc(S(=O)(=O)N3CCOCC3)c2)cs1`, for which the AC50 was > 42 µM (inactive).

As for `COc1cc(NC(=O)CN2CCN(CC(=O)Nc3ccccc3OC)CC2)cc(OC)c1`, the AC50 was > 42 µM (inactive).

For the molecule `CCOC(=O)c1cnc2oc3ccccc3n2c1=O`, the AC50 is > 42 µM (inactive).

In the case of `CC1CCN(CCCCOc2cccc(Br)c2)CC1`, the AC50 is > 42 µM (inactive).

In the case of `Cn1cc(C(=O)Cc2ccccc2)c2ccccc21`, the AC50 is > 42 µM (inactive).

`CC(=Nc1ccccc1)C1=C(O)CC(C)(C)CC1=O`: the AC50 is > 42 µM (inactive).

Take `CCCSc1nc(=O)n2cccc(C)c2n1`: the AC50 is > 42 µM (inactive).

As for `CN1C(=O)C(O)(CC(=O)c2ccccc2O)c2cc(Br)ccc21` (stereo unspecified), the AC50 is > 42 µM (inactive).

Regarding `Cc1cccc(Cn2c(C(=O)OC(C)C)cc3c2ccn3C)c1`, the AC50 was > 42 µM (inactive).

For `Cc1[nH]n(-c2ccccc2)c(=O)c1C(C[N+](=O)[O-])c1ccc(Br)cc1` (stereo unspecified), the AC50 was 42.1 µM.

On to `CCS(=O)(=O)N1CCC(C(=O)N2CCc3ccccc3C2)CC1`, for which the AC50 was > 42 µM (inactive).

As for `CC1CCN(S(=O)(=O)c2ccc(NC(=O)c3cccs3)cc2)CC1`, the AC50 was > 42 µM (inactive).

On to `O=C(Nc1ccc(Cl)cc1)N1CCC(c2nc(-c3ccc(F)cc3)no2)CC1`, for which the AC50 is > 42 µM (inactive).

`CC[n+]1c(/C=C(\C)SC)sc2ccccc21`: the AC50 was > 42 µM (inactive).

As to `CC(C)NC(=O)CCCc1cn(C)c2ccccc12`, the AC50 is > 42 µM (inactive).

Consider `C/C(=N/OCO/N=C(\C)c1ccccc1)c1ccccc1`, for which the AC50 is > 42 µM (inactive).

As to `COc1ccccc1NS(=O)(=O)c1cc(Cl)ccc1OC`, the AC50 was > 42 µM (inactive).

Turning to `Cc1sc2nc(CN3CCCC3)nc(NCc3ccncc3)c2c1C`, the AC50 was > 42 µM (inactive).

On to `CCOC(=O)c1sc(NC(=O)C(CC)OC(=O)c2ccco2)nc1C` (stereo unspecified), for which the AC50 is > 42 µM (inactive).

Consider `Cn1cnnc1-c1cccc(NS(=O)(=O)c2ccc(N3CCCC3=O)cc2)c1`, for which the AC50 is > 42 µM (inactive).

For `COc1ccc2c(c1)OC[C@H]1[C@H]2N2C(=O)c3cc(Br)ccc3NC(=O)[C@@]2(C)[C@H]1c1ccccc1`, the AC50 was > 42 µM (inactive).

As for `O=C(c1cc(N2C(=O)C3C4CCC(C4)C3C2=O)ccc1Cl)N1CCCCCC1` (stereo unspecified), the AC50 was > 42 µM (inactive).

With `N#Cc1cc2c(nc1SC1CCCCC1O)CCCC2` (stereo unspecified), the AC50 is > 42 µM (inactive).

Take `CCn1c(SCC(=O)Nc2ccc(NC(=O)c3ccco3)cc2)nnc1-c1cccs1`: the AC50 was > 42 µM (inactive).

On to `Cc1ccc(S(=O)(=O)CCC(=O)OCC(=O)N(C)C2CCS(=O)(=O)C2)cc1` (stereo unspecified), for which the AC50 is > 42 µM (inactive).

As for `CSCC[C@H](NC(=O)CC(C)(C)C)c1nc2ccccc2[nH]1`, the AC50 was > 42 µM (inactive).

In the case of `O=C1NC(=O)N(Cc2ccccc2)C1=O`, the AC50 was > 42 µM (inactive).

For the molecule `O=C1N=C(N2CCOCC2)S/C1=C\c1cccnc1`, the AC50 is > 42 µM (inactive).

Regarding `Cc1ccc(C(=O)NC(Cc2c[nH]c3ccccc23)C(=O)O)o1` (stereo unspecified), the AC50 is > 42 µM (inactive).

`COC(=O)c1ccc(CSc2nc3ccccc3c(=O)n2CC(C)C)o1`: the AC50 was > 42 µM (inactive).

For `COc1cc(NC(=O)C2=CC(c3ccco3)=NS(=O)(=O)N2C)cc(OC)c1OC`, the AC50 is > 42 µM (inactive).

`COc1ccc(C(=O)N/C(=C\c2cc(OC)c(OC)cc2[N+](=O)[O-])C(=O)NCCO)cc1`: the AC50 was > 42 µM (inactive).

Regarding `CC(=O)Nc1ccc(/C(C)=N/NC(=O)c2ccncc2)cc1`, the AC50 is > 42 µM (inactive).

As for `N#CC1=C(SCC(N)=O)NC(=O)CC1c1ccccc1Cl` (stereo unspecified), the AC50 is > 42 µM (inactive).
